Tests used:
Assay type in all cases: in vivo, mouse
[1] = tested on: DMD exon 2; assay: RT-PCR quantification of DMD exon 2 skipping (Dup2, WT, Del2 transcripts) in muscles of Dup2 mice; details: adult Dup2 mice, tail vein, 3 months post-injection
Experimental: Total RNA was isolated from tissue samples and analyzed by reverse transcription (RT) followed by PCR. […] For each sample, 1 μg of total RNA was used to generate cDNA by RT-PCR using random hexamer primers according to the manufacturer's protocol (Thermo Scientific, Ferk1672) and then used for a single PCR of 35 cycles using 1 μg of RNA and a mixture of random hexamer and oligo(dT) for each RT reaction. mRNA was then amplified via primers specific to the DMD 5′UTR and the exon 3-4 junction as follows.
Following electrophoresis, PCR products were electrophoresed on a 2% agarose gel and imaged using a Gel Logic 200 Imaging System (Kodak). Quantification of Dup2, WT or Del2 transcript was performed using ImageJ (an open source platform for scientific image analysis), and each band plotted in Prism (GraphPad) as a percentage of the overall dystrophin transcript. The images were then used to quantify the relative amount of each transcript using ImageJ software 14. Using the “Gel” function of ImageJ, a box was drawn in each lane around the area where the three possible transcripts would be. A histogram of each sample was then generated and the area under the curve was measured. The sum of the area under the three peaks were added together and then individual peak area was measured as a percentage of the total.

[2] = tested on: Dup2 mice; assay: Quantification of centronucleation of myofibers (H&E) in Dup2 mice; details: adult Dup2 mice, tail vein, 3 months post-injection
Experimental: (§1) To induce muscle injury for Evans blue dye (EBD) analysis, a treadmill exercise program was used. In the first week, four month old mice were trained three times on a treadmill at 10° inclination, running as follows: 0 m/min for 2 min, 5 m/min for 5 min, 10 m/min for 15 min, and 12 m/min for 5-10 min. In the following three weeks (3×/week), mice ran on the treadmill at 2 m/min for 30 min. Before mice euthanasia, the treadmill was used at the same inclination at 5 m/min for 5 min. Following this initial warming up, the speed was increased to +1 m/min until exhaustion. EBD solution (10 mg/ml in PBS) was filtered and injected intraperitoneally (IP) into mice after the last treadmill exercise, and mice were sacrificed 24 hrs later. For analysis, muscle sections were stained with α-laminin to distinguish myofibers, and the percentage of positive Evans blue fibers (labeled in red) were then quantified using ImageJ software. For quantification of centronucleation, H&E staining was performed using standard technique, and fiber counting was performed manually using ImageJ. For both analyses, three sections were processed and counted for each animal.
(§2) H&E staining was performed using standard protocol. Quantification of both centronucleation and Evans blue dye (EBD) was performed manually using ImageJ. Three sections were processed and counted for each animal.

[3] = tested on: Dup2 mice; assay: Evans blue dye (EBD) positive fibers after exhaustive treadmill exercise in Dup2 mice; details: adult Dup2 mice, tail vein
Experimental: as §1, §2

[4] = tested on: dystrophin; assay: Western blot / immunoblot quantification of dystrophin in muscles of Dup2 mice; details: for Western blot quantification: % of dystrophin: percent of WT, adult Dup2 mice, tail vein, 3 months post-injection
Experimental: (§3) 150 μl of this lysis buffer was used for 100 mg of tissue. This solution was then put on ice for 30min, and then tissue was lysed using a metal bead (1 min at 30 Hz, TissueLyser II, Qiagen). These last two steps were repeated, and then the lysate was centrifuged at 14000 g for 20min at 4° C. The supernatant was mixed with a classical 4× Laemmli buffer and boiled for 5 min at 100° C. 50-150 μg of protein were run on a precast 3-8% Tris-Acetate gel (NuPage, Life Science) for 16 h at 80V (4° C.). Using a nitrocellulose membrane, gels were transferred overnight at 300 mA using a cooling device. […] All antibodies were diluted in half Odyssey blocking buffer (Licor®) and half Tris buffered saline with Tween (TBST) (Sigma-Aldrich). Following secondary incubation, 5×5 min with 0.1% Tween washes were performed followed by a ddH2O rincing. Both IRDye@ signals were simultaneously scanned using the Odyssey® CLx (LI-COR). The signals for both dystrophin, utrophin and α-actinin were quantified using ImageJ.
With some experiments, 25×40 μm thick sections of cryopreserved tissues were used for western blotting to quantify amount of restored dystrophin protein. Extracted protein was run on 3-8% Tris-Acetate protein gels and visualized using specific primary antibodies against dystrophin or α-actinin the corresponding Licor secondary antibodies IRDye 680 or IRDye 800 (as set out above). Blots were imaged using the Licor Odyssey CLx and quantified using ImageJ.
Steel beads were added to the tissue, which was homogenized using the Tissuelyser II (Qiagen) for 2 min at a rate of 30/sec. Lysates were then incubated on ice and spun down; the supernatant was removed and stored at −80═ C. until immunoblotting, and the cell debris was discarded. For immunoblotting, 50 μg C57BL/6 muscle tissue protein or 150 μg Dup2 muscle tissue protein was loaded with a loading dye (1× laemmli) on a 3-8% Tris Acetate gel (Life Technologies, EA0378BOX). […] The membrane was scanned on the Odyssey CLx and imaged using Image Studio 14. Single color channel images were using Image Studio and then imported into ImageJ for quantification. For each channel, a box was drawn in each lane around the protein band using the “Gel” function in ImageJ. A histogram of each sample was then generated and the area under the curve was measured. Dystrophin was normalized to α-actinin by dividing the area of the dystrophin band by the area of the α-actinin band for each sample. If the same sample was run on multiple immunoblots, the median was taken to represent that particular sample. The C57BL/6 measurement was determined by taking the mean of all wild type samples. Both treated Dup2 and control Dup2 measurements were reported as a percentage of the wild type (n≥3).

[5] = qPCR quantification of viral vector genomes (biodistribution) in muscles of Dup2 mice; details: adult Dup2 mice, tail vein, 3 months post-injection
Experimental: Physical titer determination was determined based on degradation of non-encapsidated DNA following digestion of viral capsids. Released encapsidated DNA was quantified by qPCR to determine the DNAase Resistant Particle (DRP) titer. The DRP titer (also referred to as vector genomes [vg]) were determined for scAAV9.U7.ACCA or scAAV1.U7-ACCA products using real-time quantitative PCR (qPCR) using dilutions of a linearized plasmid standard containing U7 amplicon as assay standards. The DRP quantitative PCR (qPCR) assay involves serial dilution of the test sample (10^−2 to 10^−5) and sequential digestion with DNase I and Proteinase K, followed by qPCR analysis. DNA detection was accomplished using sequence specific primers targeting a primer/probe combination specific to the construct sequence (probe: 5′-[…]-3′ (SEQ ID NO: 4); Fw primer: 5′-agctcctatgttgttaTCTAGAG-3′ (SEQ ID NO: 5); Rv primer: 5′-[…]-3′ (SEQ ID NO: 6)) and amplified using a fluorescently tagged probe hybridizing to the U7 amplicon. Titration of the encapsidated viral genome were performed using quantitative PCR-based titration method runned on a Prism 7500 Taqman detector system (PE Applied Biosystems).
All tissues and organs for qPCR/Biodistribution studies were placed into sterile tubes, snap-frozen in liquid nitrogen, and kept at <−70° C. qPCR analyses were performed on samples at 1, 3 and 6 months post-injection. 300 ul DNA lysis buffer (0.05M Tris-HCl pH 8, 0.1M NaCl, 0.1M EDTA, 1% SDS) plus 7.5 ul proteinase K were added to sections and incubated at 55° C. overnight. DNA was quantified and 25 ng of DNA was run in triplicate. The same qPCR primers and probe used for vector titration were used to perform the tissue biodistribution qPCR studies. Data were represented as normalized copy number per 1 ug DNA.

[6] = tested on: utrophin; assay: Western blot quantification of utrophin in muscles of Dup2 mice; details: adult Dup2 mice, tail vein, 3 months post-injection
Experimental: as §3

[7] = tested on: tibialis anterior (TA) muscle; assay: Force generation and protection from eccentric contractions, tibialis anterior of Dup2 mice; parameters: Eccentric contraction: % force decrease: scale not given here; details: tail vein adult Dup2 mice
Experimental: Physiologic studies were conducted on TA muscles from 12 week old mice that had been treated with an intramuscular injection of 3.1×10^11 vg at 8 weeks (N≥5 limbs). For systemic studies, the mice were 20-21 weeks old following 12 weeks of treatment (N≥12 limbs). The force study procedure was conducted using a modified version of Hakim's procedure (Hakim et al., J Appl. Physiol. (1985) 2011; 110:1656-1663; Wein et al., Nat. Med. 2014; 20:992-1000). Initial anesthetization of mice was conducted by giving an intraperitoneal injection of a cocktail containing five times their weight (i.e., the weight of the mouse) of 25 mg/mL ketamine and twice their weight of 2.5 mg/ml xylazine. […]
The resting force was set to between 3-4 g for a 10 minute equilibrium period. The TA muscle was then stimulated at the optimal length (Lo, mm) and active tetanic muscle force was recorded to give the absolute force measurement using the Lab View-based DMC program (Aurora Scientific). […] The cross-sectional area measured as mass (g)/(muscle density×ratio of fiber length×Lo) where muscle density is 1.06 mg/mm^3 and the ratio of fiber length in the TA is 0.6 (Burkholder et al., J Morphol 1994; 221:177-190). […] Statistical significance was assessed using a Kruskal-Wallace test assuming nonparametric data in the GraphPad Prism (version 6.03 for Windows, GraphPad Software, San Diego California USA). […]

In the case of `C[C@H]1C[C@@H]2[C@H]([C@@H](O)C[C@@]3(C)[C@H]2CC[C@]3(O)C(=O)COC(=O)CCC(=O)[O-])[C@@]2(C)C=CC(=O)C=C12.[Na+]` [PDN, 6α-methylprednisolone 21-hemisuccinate sodium salt], the “RT-PCR quantification: % of Del2 transcript” value ([1]; DIA) was 0%, the “RT-PCR quantification: % of Dup2 transcript” value ([1]; DIA) was 97.7% and the “RT-PCR quantification: % of WT transcript” value ([1]; DIA) was 2.3%. The “RT-PCR quantification: % of Del2 transcript” value ([1]; GAS) was 4.3%, the “RT-PCR quantification: % of Dup2 transcript” value ([1]; GAS) was 86% and the “RT-PCR quantification: % of WT transcript” value ([1]; GAS) was 9.6%. The “RT-PCR quantification: % of Del2 transcript” value ([1]; HEART) was 0%, the “RT-PCR quantification: % of Dup2 transcript” value ([1]; HEART) was 98.3% and the “RT-PCR quantification: % of WT transcript” value ([1]; HEART) was 1.6%. For the same compound, the “RT-PCR quantification: % of Del2 transcript” value ([1]; TA) was 0%, the “RT-PCR quantification: % of Dup2 transcript” value ([1]; TA) was 100% and the “RT-PCR quantification: % of WT transcript” value ([1]; TA) was 0%. The “RT-PCR quantification: % of Del2 transcript” value ([1]; TRI) was 0%, the “RT-PCR quantification: % of Dup2 transcript” value ([1]; TRI) was 98.3% and the “RT-PCR quantification: % of WT transcript” value ([1]; TRI) was 1.7%. The “% of centronucleation” value ([2]; DIA) was 68.55%, the “% of centronucleation” value ([2]; TA) was 71.12% and the “% of EBD positive fibers” value ([3]; DIA) was 12.31%. For the same compound, the “% of EBD positive fibers” value ([3]; GAS) was 3.04%, the “% of EBD positive fibers” value ([3]; TA) was 8.14% and the “% of EBD positive fibers” value ([3]; TRI) was 2.57%. The “Western blot quantification: % of dystrophin” value (shortened to “Western blot quantification: %”) ([4]; DIA) was 9.2%, the dystrophin expression ([4]; Dup2 mice, PDN alone) was “does not induce dystrophin expression” and the “Western blot quantification: %” value ([4]; GAS) was 2.1%. The “Western blot quantification: %” value ([4]; HEART) was 13.7%, the “Western blot quantification: %” value ([4]; TA) was 4.83% and the “Western blot quantification: %” value ([4]; TRI) was 4.8%. For the same compound, the “viral vector genome quantification” value ([5]; DIA) was 17 vector/ug DNA, the “viral vector genome quantification” value ([5]; GAS) was 15 vector/ug DNA and the “viral vector genome quantification” value ([5]; HEART) was 188 vector/ug DNA. For the same compound, the “viral vector genome quantification” value ([5]; TA) was 39 vector/ug DNA, the “viral vector genome quantification” value ([5]; TRI) was 50 vector/ug DNA and the “Western blot quantification: ratio of utrophin/a-actinin” value (from here on “Western blot quantification: ratio”) ([6]; DIA) was 0.6. The “Western blot quantification: ratio” value ([6]; GAS) was 0.2, the “Western blot quantification: ratio” value ([6]; HEART) was 0.5 and the “Western blot quantification: ratio” value ([6]; TA) was 0.3. The “Western blot quantification: ratio” value ([6]; TRI) was 0.4, the “Absolute force: Force (mN)” value [7] was 1401 mN and the “Eccentric contraction: % force decrease” value ([7]; repeated eccentric contractions) was 0.52.
